Key:
[1] = tested on: surinam grass; experiment: Test B pre/postemergence surinam grass; format: in vivo, Brachiaria decumbens; conditions: for B. signalgrass plant response rating: Postemergence; for Plant response rating, B. signalgrass: Preemergence
Summary of the method: (§1)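 Herbicidal effect was estimated by eye on a ten-point control scale after plants spent twelve to sixteen days in a greenhouse following soil or foliar treatment. Foliar sprays targeted plants at one to four leaves; all doses were formulated in a non-phytotoxic solvent with surfactant.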

[2] = tested on: duck salad; experiment: Test B flood test duck salad; format: in vivo, Heteranthera limosa
Summary of the method: (§2)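 Read-out is a visual response score from 0 (no effect) to 10 (complete control), assigned by comparison with untreated controls. Treatment was applied at the 2-leaf stage, and plants stayed in the greenhouse for twelve to sixteen days before scoring.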

[3] = tested on: velvetleaf; experiment: Test B pre/postemergence velvetleaf; format: in vivo, Abutilon theophrasti; conditions: for Velvetleaf plant response rating: Postemergence; for Plant response rating, Velvetleaf: Preemergence
Summary of the method: as §1

[4] = tested on: wild oat; experiment: Test B pre/postemergence wild oat; format: in vivo, Avena fatua; conditions: for Wild oats plant response rating: Postemergence; for Plant response rating, Wild oats: Preemergence
Summary of the method: as §1

[5] = tested on: blackgrass; experiment: Test B pre/postemergence blackgrass; format: in vivo, Alopecurus myosuroides; conditions: for Blackgrass plant response rating: Postemergence; for Plant response rating, Blackgrass: Preemergence
Summary of the method: as §1

[6] = tested on: purple nutsedge; experiment: Test B pre/postemergence purple nutsedge; format: in vivo, Cyperus rotundus; conditions: for Nutsedge plant response rating: Postemergence; for Plant response rating, Nutsedge: Preemergence
Summary of the method: as §1

[7] = tested on: smallflower flatsedge; experiment: Test B flood test smallflower flatsedge; format: in vivo, Cyperus difformis
Summary of the method: as §2

[8] = tested on: rape; experiment: Test B pre/postemergence rape; format: in vivo, Brassica napus; conditions: for Rape plant response rating: Postemergence; for Plant response rating, Rape: Preemergence
Summary of the method: as §1

[9] = tested on: crabgrass; experiment: Test B pre/postemergence crabgrass; format: in vivo, Digitaria sanguinalis; conditions: for Crabgrass plant response rating: Postemergence; for Plant response rating, Crabgrass: Preemergence
Summary of the method: as §1

[10] = tested on: sugar beet; experiment: Test B pre/postemergence sugar beet; format: in vivo, Beta vulgaris; conditions: for Sugarbeets plant response rating: Postemergence; for Plant response rating, Sugarbeets: Preemergence
Summary of the method: as §1

[11] = tested on: corn; experiment: Test B pre/postemergence corn; format: in vivo, Zea mays; conditions: for Corn plant response rating: Postemergence; for Plant response rating, Corn: Preemergence
Summary of the method: as §1

[12] = tested on: wheat; experiment: Test B pre/postemergence wheat; format: in vivo, Triticum aestivum; conditions: for Wheat plant response rating: Postemergence; for Plant response rating, Wheat: Preemergence
Summary of the method: as §1

[13] = tested on: rice; experiment: Test B flood test rice; format: in vivo, Oryza sativa
Summary of the method: as §2

[14] = tested on: bedstraw; experiment: Test B pre/postemergence bedstraw; format: in vivo, Galium aparine; conditions: Postemergence
Summary of the method: as §1

[15] = tested on: giant foxtail; experiment: Test B pre/postemergence giant foxtail; format: in vivo, Setaria faberii; conditions: for Giant foxtail plant response rating: Postemergence; for Plant response rating, Giant foxtail: Preemergence
Summary of the method: as §1

[16] = tested on: bamyardgrass; experiment: Test B flood test barnyardgrass; format: in vivo, Echinochloa crus-galli
Summary of the method: as §2

[17] = tested on: soybean; experiment: Test B pre/postemergence soybean; format: in vivo, Glycine max; conditions: for Soybean plant response rating: Postemergence; for Plant response rating, Soybean: Preemergence
Summary of the method: as §1

[18] = tested on: pigweed; experiment: Test B pre/postemergence pigweed; format: in vivo, Amaranthus retroflexus; conditions: for Redroot pigweed plant response rating: Postemergence; for Plant response rating, Redroot pigweed: Preemergence
Summary of the method: as §1

[19] = tested on: morningglory; experiment: Test B pre/postemergence morningglory; format: in vivo, Ipomoea hederacea; conditions: for Morningglory plant response rating: Postemergence; for Plant response rating, Morningglory: Preemergence
Summary of the method: as §1

[20] = tested on: cocklebur; experiment: Test B pre/postemergence cocklebur; format: in vivo, Xanthium strumarium; conditions: for Cocklebur plant response rating: Postemergence; for Plant response rating, Cocklebur: Preemergence
Summary of the method: as §1

[21] = Rate 125 g/ha, scale of 0 to 10 where 0 is no effect and 10 is complete control
[22] = Rate 1000 g/ha, scale 0 to 10 (0 no effect, 10 complete control)
[23] = Rate 250 g/ha, scale 0 to 10 (0 no effect, 10 complete control)
[24] = Rate 500 g/ha, scale of 0 to 10 where 0 is no effect and 10 is complete control
[25] = Rate 250 g/ha, scale 0 to 10, 0 is no effect, 10 is complete control
[26] = Rate 500 g/ha, scale 0 to 10, 0 is no effect, 10 is complete control
[27] = Pre-emergence, Rate 1000 g/ha, scale 0 to 10 (0 no effect, 10 complete control)
[28] = Rate 125 g/ha, under heading Pre-emergence, flood test species, visual evaluation after twelve to sixteen days
[29] = Rate 250 g/ha, Pre-emergence (flood test species), scale 0 to 10, 0 is no effect, 10 is complete control
[30] = Rate 500 g/ha, Pre-emergence section of Table B, 0 to 10 scale (0 no effect, 10 complete control)

## COC(=O)C(CCO)n1c(=O)on(C(=O)N(c2ccc(Cl)cc2)C(C)C)c1=O (centres unmarked) [Compound 679]
[1]; [21]
  B. signalgrass plant response rating: 0
  Plant response rating, B. signalgrass: 0
[1]; [22]
  B. signalgrass plant response rating: 0
  Plant response rating, B. signalgrass: 0
[1]; [23]
  Plant response rating, B. signalgrass: 0
[1]; [24]
  Plant response rating, B. signalgrass: 0
[1]; [25]
  B. signalgrass plant response rating: 0
[1]; [26]
  B. signalgrass plant response rating: 0
[2]; [27]
  Ducksalad plant response rating: 0
[2]; [28]
  Ducksalad plant response rating (0 to 10 scale, 0 is no effect, 10 is complete control): 0
[2]; [29]
  Ducksalad plant response rating: 0
[2]; [30]
  Ducksalad plant response rating: 0
[3]; [21]
  Velvetleaf plant response rating: 0
  Plant response rating, Velvetleaf: 0
[3]; [24]
  Plant response rating, Velvetleaf: 0
[3]; [25]
  Velvetleaf plant response rating: 0
[3]; [26]
  Velvetleaf plant response rating: 0
[3]; [22]
  Plant response rating, Velvetleaf: 0
[4]; [21]
  Wild oats plant response rating: 0
  Plant response rating, Wild oats: 0
[4]; [24]
  Plant response rating, Wild oats: 0
[4]; [25]
  Wild oats plant response rating: 0
[4]; [26]
  Wild oats plant response rating: 0
[4]; [22]
  Plant response rating, Wild oats: 0
[5]; [21]
  Blackgrass plant response rating: 0
  Plant response rating, Blackgrass: 0
[5]; [22]
  Blackgrass plant response rating: 1
  Plant response rating, Blackgrass: 5
[5]; [23]
  Plant response rating, Blackgrass: 0
[5]; [24]
  Plant response rating, Blackgrass: 0
[5]; [25]
  Blackgrass plant response rating: 0
[5]; [26]
  Blackgrass plant response rating: 0
[6]; [21]
  Nutsedge plant response rating: 0
  Plant response rating, Nutsedge: 0
[6]; [22]
  Nutsedge plant response rating: 0
[6]; [24]
  Plant response rating, Nutsedge: 0
[6]; [25]
  Nutsedge plant response rating: 0
[6]; [26]
  Nutsedge plant response rating: 0
[7]; [27]
  S. Flatsedge plant response rating: 0
[7]; [28]
  S. Flatsedge plant response rating (0 to 10 scale, 0 is no effect, 10 is complete control): 0
[7]; [29]
  S. Flatsedge plant response rating: 0
[7]; [30]
  S. Flatsedge plant response rating: 0
[8]; [21]
  Rape plant response rating: 0
  Plant response rating, Rape: 0
[8]; [22]
  Rape plant response rating: 0
  Plant response rating, Rape: 0
[8]; [24]
  Plant response rating, Rape: 0
[8]; [25]
  Rape plant response rating: 0
[8]; [26]
  Rape plant response rating: 0
[9]; [21]
  Crabgrass plant response rating: 0
  Plant response rating, Crabgrass: 0
[9]; [22]
  Crabgrass plant response rating: 2
  Plant response rating, Crabgrass: 3
[9]; [23]
  Plant response rating, Crabgrass: 0
[9]; [24]
  Plant response rating, Crabgrass: 1
[9]; [25]
  Crabgrass plant response rating: 0
[10]; [21]
  Sugarbeets plant response rating: 0
  Plant response rating, Sugarbeets: 0
[10]; [24]
  Plant response rating, Sugarbeets: 0
[10]; [25]
  Sugarbeets plant response rating: 0
[10]; [26]
  Sugarbeets plant response rating: 0
[10]; [22]
  Plant response rating, Sugarbeets: 0
[11]; [21]
  Corn plant response rating: 0
  Plant response rating, Corn: 0
[11]; [22]
  Corn plant response rating: 0
  Plant response rating, Corn: 2
[11]; [23]
  Plant response rating, Corn: 0
[11]; [24]
  Plant response rating, Corn: 0
[11]; [25]
  Corn plant response rating: 0
[11]; [26]
  Corn plant response rating: 0
[12]; [21]
  Wheat plant response rating: 0
  Plant response rating, Wheat: 0
[12]; [24]
  Plant response rating, Wheat: 0
[12]; [25]
  Wheat plant response rating: 0
[12]; [26]
  Wheat plant response rating: 0
[12]; [22]
  Plant response rating, Wheat: 0
[13]; [27]
  Rice plant response rating: 0
[13]; [28]
  Rice plant response rating (0 to 10 scale, 0 is no effect, 10 is complete control): 0
[13]; [29]
  Rice plant response rating: 0
[13]; [30]
  Rice plant response rating: 0
[14]; [21]
  Bedstraw plant response rating: 0
[14]; [25]
  Bedstraw plant response rating: 0
[14]; [26]
  Bedstraw plant response rating: 0
[15]; [21]
  Giant foxtail plant response rating: 0
  Plant response rating, Giant foxtail: 0
[15]; [22]
  Giant foxtail plant response rating: 5
  Plant response rating, Giant foxtail: 8
[15]; [24]
  Plant response rating, Giant foxtail: 8
[15]; [25]
  Giant foxtail plant response rating: 0
[15]; [26]
  Giant foxtail plant response rating: 4
[16]; [27]
  Barnyardgrass plant response rating: 0
[16]; [28]
  Barnyardgrass plant response rating (0 to 10 scale, 0 is no effect, 10 is complete control): 0
[16]; [29]
  Barnyardgrass plant response rating: 0
[16]; [30]
  Barnyardgrass plant response rating: 0
[17]; [21]
  Soybean plant response rating: 0
  Plant response rating, Soybean: 0
[17]; [24]
  Plant response rating, Soybean: 0
[17]; [25]
  Soybean plant response rating: 1
[17]; [26]
  Soybean plant response rating: 1
[17]; [22]
  Plant response rating, Soybean: 0
[18]; [21]
  Redroot pigweed plant response rating: 0
  Plant response rating, Redroot pigweed: 0
[18]; [22]
  Redroot pigweed plant response rating: 2
  Plant response rating, Redroot pigweed: 6
[18]; [24]
  Plant response rating, Redroot pigweed: 1
[18]; [25]
  Redroot pigweed plant response rating: 0
[18]; [26]
  Redroot pigweed plant response rating: 0
[19]; [21]
  Morningglory plant response rating: 0
  Plant response rating, Morningglory: 0
[19]; [22]
  Morningglory plant response rating: 2
  Plant response rating, Morningglory: 0
[19]; [24]
  Plant response rating, Morningglory: 0
[19]; [25]
  Morningglory plant response rating: 0
[19]; [26]
  Morningglory plant response rating: 2
[20]; [21]
  Cocklebur plant response rating: 0
  Plant response rating, Cocklebur: 0
[20]; [22]
  Cocklebur plant response rating: 1
  Plant response rating, Cocklebur: 0
[20]; [23]
  Plant response rating, Cocklebur: 0
[20]; [24]
  Plant response rating, Cocklebur: 0
[20]; [25]
  Cocklebur plant response rating: 0
[20]; [26]
  Cocklebur plant response rating: 0

Reference: US6737383B1, “Herbicidal oxadiazolidines” (priority 1999, dated 2004)
